Measurements as given in paper PMC6478789, “A chemical toolbox for the study of bromodomains and epigenetic signaling” (Nature Communications, 2019).
Like-named read-outs stand apart in the source and are kept apart here. Values belong to the compound of their own block, whether it stands above or below them.

Legend:
SETD2 = target: T1, SETD2 (Homo sapiens, UniProt Q9BYW2); assay: Methyl transferase scintillation proximity assay; format: biochemical; details: average of two measurements; for inhibition at 10 µM: read-out: MTases Inhibition (%)
T1 construct: purchased DiscoverX BROMOscan (bromodomains); SGC in-house methyltransferase panel
Summary of the method: (§1)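 Scintillation proximity format using ^3H-SAM as methyl donor; substrate biotinylated. Levels of both near apparent Km. Activity expressed relative to compound-free (100%) and enzyme-free (0%) counts.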

GLP = target: T2, GLP (Homo sapiens, UniProt Q9H9B1); assay: Methyl transferase scintillation proximity assay; format: biochemical; details: average of two measurements; for inhibition at 10 µM: read-out: MTases Inhibition (%)
T2 construct: purchased DiscoverX BROMOscan (bromodomains); SGC in-house methyltransferase panel
T2 sequence (Q9H9B1 1-1298): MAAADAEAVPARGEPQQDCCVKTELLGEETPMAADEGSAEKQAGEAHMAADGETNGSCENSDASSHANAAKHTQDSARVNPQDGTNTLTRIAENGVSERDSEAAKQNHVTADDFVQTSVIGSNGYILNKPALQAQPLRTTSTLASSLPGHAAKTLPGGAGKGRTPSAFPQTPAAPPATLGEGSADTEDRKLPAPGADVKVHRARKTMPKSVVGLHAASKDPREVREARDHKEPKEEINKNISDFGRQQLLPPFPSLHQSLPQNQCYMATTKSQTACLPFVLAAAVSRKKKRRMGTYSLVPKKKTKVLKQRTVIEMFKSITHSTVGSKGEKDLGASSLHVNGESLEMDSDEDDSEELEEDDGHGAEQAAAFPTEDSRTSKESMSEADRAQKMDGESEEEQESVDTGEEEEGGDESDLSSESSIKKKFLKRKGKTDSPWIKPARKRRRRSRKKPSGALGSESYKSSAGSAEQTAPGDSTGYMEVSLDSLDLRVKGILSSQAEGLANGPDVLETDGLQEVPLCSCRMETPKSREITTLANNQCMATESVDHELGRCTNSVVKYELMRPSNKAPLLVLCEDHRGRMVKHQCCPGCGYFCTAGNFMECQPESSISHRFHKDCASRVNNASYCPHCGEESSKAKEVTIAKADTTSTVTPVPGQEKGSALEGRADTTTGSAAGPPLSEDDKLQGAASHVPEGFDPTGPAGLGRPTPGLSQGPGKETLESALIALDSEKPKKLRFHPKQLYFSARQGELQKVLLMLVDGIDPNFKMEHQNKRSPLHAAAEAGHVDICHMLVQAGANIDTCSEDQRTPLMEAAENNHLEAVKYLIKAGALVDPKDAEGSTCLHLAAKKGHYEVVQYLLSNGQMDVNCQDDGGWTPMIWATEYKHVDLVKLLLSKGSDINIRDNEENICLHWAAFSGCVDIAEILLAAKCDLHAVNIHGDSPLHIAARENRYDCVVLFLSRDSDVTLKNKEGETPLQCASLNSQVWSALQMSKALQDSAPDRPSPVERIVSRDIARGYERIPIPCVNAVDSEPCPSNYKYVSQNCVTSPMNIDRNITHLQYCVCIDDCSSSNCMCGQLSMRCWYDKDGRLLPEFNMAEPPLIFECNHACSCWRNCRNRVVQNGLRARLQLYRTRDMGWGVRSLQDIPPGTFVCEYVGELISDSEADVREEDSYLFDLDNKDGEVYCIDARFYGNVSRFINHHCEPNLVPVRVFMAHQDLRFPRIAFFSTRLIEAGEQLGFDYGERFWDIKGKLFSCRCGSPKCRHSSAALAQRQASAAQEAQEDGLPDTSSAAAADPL
Summary of the method: as §1

TRIM33(PHD,BRD) = target: T3, TRIM33(PHD,BRD) (Homo sapiens, UniProt Q9UPN9); assay: BROMOscan ligand-binding assay
T3 sequence (Q9UPN9 882-1087 limits assumed): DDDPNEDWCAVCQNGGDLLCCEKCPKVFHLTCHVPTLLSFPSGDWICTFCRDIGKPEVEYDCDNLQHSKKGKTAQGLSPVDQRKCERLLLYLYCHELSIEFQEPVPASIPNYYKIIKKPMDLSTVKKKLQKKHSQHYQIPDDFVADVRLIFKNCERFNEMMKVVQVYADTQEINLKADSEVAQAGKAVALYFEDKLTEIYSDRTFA
Description: (§2) BROMOscan is a binding assay based on the well-known KINOMEscan technology. This assay measures the binding of a DNA-tagged bromodomain to an immobilized BRD ligand. If an inhibitor is present, it will compete with the bromodomain binding to the immobilized ligand, resulting in reduction of a quantitative PCR (qPCR) signal in a dose-dependent manner.

BRD4(2) = BRD4(2) (Homo sapiens, UniProt O60885); assay: BROMOscan ligand-binding assay
Description: as §2

PBRM1(2) = PBRM1(2) (Homo sapiens, UniProt Q86U86); assay: BROMOscan ligand-binding assay
Description: as §2

TAF1L(2) = target: T4, TAF1L(2) (Homo sapiens, UniProt Q8IZX4); assay: BROMOscan ligand-binding assay
T4 sequence (Q8IZX4 1517-1626 limits assumed): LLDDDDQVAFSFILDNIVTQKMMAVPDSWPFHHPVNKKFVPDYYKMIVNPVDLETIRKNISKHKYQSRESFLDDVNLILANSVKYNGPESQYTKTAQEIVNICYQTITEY
Description: as §2

ATAD2A = target: T5, ATAD2A (Homo sapiens, UniProt Q6PL18); assay: BROMOscan ligand-binding assay
T5 sequence (Q6PL18 980-1092 limits assumed): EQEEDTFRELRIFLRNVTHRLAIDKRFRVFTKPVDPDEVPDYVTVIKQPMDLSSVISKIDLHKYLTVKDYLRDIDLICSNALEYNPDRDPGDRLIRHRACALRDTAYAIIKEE
Description: as §2

GCN5L2 = target: T6, GCN5L2 (Homo sapiens, UniProt Q92830); assay: BROMOscan ligand-binding assay
T6 sequence (Q92830 728-832 limits assumed): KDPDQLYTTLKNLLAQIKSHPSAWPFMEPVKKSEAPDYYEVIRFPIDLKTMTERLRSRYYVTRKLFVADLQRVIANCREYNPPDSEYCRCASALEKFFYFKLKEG
Description: as §2

SMARCA2 = SMARCA2 (Homo sapiens, UniProt P51531); assay: BROMOscan ligand-binding assay
Description: as §2

TRIM24 = target: T7, TRIM24 (Homo sapiens, UniProt O15164); assay: BROMOscan ligand-binding assay; details: KD
T7 sequence (O15164 899-1004 limits assumed): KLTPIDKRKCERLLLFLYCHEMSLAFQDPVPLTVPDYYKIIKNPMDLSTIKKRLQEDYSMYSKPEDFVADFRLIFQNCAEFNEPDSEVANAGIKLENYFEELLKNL
Description: as §2

[1] = read-out: KD (BROMOscan), sheet prints no unit (nM)
[2] = KD (BROMOscan), sheet prints no unit (nM)
[3] = KD, BROMOscan Gene Symbol ATAD2A

SMARCA2, sequence (P51531 1-1572 isoform P51531-2): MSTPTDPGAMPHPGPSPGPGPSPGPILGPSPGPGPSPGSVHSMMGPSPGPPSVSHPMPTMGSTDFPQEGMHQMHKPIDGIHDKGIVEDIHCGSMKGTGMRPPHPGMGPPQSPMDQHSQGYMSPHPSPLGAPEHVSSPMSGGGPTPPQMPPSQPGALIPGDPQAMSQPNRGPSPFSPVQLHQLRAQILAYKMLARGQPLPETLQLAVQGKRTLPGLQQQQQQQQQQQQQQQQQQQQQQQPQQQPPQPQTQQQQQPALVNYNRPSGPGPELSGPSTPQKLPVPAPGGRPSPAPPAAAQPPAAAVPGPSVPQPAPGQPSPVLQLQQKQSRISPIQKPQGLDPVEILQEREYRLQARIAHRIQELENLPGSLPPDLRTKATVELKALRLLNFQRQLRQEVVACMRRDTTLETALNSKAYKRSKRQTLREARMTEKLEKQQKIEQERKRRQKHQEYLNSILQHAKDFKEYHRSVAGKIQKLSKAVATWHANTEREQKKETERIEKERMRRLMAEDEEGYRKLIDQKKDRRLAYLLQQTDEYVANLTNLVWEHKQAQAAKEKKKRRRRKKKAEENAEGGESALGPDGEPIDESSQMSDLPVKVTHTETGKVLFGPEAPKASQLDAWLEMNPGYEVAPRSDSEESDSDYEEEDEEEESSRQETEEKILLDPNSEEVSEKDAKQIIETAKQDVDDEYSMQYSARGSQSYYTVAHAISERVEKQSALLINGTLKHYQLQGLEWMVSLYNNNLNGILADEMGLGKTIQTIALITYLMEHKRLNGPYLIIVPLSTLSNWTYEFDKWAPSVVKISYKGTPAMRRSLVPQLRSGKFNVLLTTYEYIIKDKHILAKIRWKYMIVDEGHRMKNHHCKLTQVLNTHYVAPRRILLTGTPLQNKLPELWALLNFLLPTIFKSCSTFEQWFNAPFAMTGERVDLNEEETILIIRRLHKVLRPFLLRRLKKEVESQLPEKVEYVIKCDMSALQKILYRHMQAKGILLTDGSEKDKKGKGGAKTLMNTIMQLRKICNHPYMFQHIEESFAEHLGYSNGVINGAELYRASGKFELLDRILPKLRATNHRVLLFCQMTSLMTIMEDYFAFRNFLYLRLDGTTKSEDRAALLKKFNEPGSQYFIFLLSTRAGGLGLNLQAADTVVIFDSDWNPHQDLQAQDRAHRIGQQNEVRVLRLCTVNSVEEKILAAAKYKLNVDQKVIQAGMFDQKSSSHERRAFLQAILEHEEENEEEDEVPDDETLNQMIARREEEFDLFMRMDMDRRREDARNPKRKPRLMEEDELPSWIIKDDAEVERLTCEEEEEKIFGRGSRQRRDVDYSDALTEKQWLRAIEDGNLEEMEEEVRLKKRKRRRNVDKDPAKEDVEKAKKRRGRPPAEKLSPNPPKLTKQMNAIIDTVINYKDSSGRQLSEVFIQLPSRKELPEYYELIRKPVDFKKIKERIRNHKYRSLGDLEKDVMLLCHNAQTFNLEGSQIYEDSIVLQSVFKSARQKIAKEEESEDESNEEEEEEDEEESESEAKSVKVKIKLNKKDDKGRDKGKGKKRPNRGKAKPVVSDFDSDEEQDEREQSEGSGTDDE
PBRM1(2), sequence (Q86U86 177-287 limits assumed): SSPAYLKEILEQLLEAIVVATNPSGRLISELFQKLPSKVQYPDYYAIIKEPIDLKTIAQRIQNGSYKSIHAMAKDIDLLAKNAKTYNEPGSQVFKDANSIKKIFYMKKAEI
T1 sequence (Q9BYW2 whole entry): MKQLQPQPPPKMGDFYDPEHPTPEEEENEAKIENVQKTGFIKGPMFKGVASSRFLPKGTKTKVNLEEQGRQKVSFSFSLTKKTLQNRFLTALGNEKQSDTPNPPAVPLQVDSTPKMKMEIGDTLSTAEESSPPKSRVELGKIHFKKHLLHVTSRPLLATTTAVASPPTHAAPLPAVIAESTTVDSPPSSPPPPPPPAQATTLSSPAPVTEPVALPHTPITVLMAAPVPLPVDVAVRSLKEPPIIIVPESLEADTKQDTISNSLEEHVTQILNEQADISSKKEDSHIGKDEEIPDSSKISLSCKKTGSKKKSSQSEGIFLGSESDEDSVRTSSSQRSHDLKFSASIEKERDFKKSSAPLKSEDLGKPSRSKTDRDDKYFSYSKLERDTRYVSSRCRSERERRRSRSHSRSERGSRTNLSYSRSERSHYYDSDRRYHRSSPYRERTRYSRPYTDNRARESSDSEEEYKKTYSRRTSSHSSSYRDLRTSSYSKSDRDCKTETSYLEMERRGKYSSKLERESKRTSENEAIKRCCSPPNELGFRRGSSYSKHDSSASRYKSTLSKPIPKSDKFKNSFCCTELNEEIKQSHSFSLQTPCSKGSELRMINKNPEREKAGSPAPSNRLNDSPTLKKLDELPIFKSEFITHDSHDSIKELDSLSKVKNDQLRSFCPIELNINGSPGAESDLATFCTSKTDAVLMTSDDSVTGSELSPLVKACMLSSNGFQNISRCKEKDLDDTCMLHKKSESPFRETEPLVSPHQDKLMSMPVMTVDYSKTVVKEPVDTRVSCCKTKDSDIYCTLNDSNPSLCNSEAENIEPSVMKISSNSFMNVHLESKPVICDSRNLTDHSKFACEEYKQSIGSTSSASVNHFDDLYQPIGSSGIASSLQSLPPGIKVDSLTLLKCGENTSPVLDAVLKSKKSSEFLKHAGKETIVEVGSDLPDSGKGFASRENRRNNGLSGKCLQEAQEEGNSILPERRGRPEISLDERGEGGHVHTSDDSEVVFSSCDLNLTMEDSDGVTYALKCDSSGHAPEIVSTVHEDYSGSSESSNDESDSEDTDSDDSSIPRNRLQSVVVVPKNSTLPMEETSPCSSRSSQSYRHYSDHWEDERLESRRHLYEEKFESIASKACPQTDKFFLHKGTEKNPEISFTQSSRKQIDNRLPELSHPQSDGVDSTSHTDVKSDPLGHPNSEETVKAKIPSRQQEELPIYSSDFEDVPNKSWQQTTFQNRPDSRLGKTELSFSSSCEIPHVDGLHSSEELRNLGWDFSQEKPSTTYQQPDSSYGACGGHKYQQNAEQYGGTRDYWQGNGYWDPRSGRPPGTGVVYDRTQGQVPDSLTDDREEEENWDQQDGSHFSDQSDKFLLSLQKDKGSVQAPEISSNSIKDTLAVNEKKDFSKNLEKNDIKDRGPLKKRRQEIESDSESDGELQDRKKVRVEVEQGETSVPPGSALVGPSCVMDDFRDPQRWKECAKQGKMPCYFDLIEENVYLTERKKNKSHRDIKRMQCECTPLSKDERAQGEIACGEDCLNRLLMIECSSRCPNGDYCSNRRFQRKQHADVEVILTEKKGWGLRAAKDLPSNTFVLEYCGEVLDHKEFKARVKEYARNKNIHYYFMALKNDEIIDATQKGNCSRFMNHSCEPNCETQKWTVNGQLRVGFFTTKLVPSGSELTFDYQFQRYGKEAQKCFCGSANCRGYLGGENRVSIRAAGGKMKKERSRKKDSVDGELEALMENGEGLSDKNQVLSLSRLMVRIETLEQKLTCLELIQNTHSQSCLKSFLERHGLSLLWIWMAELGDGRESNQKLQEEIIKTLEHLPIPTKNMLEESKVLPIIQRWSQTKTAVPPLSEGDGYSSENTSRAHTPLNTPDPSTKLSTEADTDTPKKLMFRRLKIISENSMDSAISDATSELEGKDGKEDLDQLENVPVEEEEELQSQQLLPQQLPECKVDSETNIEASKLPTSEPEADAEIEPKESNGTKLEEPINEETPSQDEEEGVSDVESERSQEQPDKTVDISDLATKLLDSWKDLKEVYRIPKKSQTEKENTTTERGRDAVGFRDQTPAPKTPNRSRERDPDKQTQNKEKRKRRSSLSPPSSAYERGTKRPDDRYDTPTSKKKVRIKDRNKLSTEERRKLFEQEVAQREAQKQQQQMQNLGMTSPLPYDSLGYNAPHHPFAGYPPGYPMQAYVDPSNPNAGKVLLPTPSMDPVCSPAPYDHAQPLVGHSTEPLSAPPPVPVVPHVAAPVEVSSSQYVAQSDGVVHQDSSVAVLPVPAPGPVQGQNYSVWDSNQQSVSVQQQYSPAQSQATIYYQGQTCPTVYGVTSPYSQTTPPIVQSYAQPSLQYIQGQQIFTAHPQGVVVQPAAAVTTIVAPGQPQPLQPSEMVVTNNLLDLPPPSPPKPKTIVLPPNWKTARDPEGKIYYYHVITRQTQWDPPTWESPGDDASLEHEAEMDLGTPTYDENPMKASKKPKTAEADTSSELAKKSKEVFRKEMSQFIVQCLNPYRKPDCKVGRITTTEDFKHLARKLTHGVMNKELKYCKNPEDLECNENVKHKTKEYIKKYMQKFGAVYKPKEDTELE

Structure (SMILES): Cc1c(NC(=O)c2cc(C(N)=O)nc3cc(F)ccc23)c(C(F)(F)F)nn1Cc1ccc(C(C)(C)C)cc1 [BAY-588]
- inhibition at 10 µM (SETD2): 0%
- inhibition at 10 µM (GLP): 2%

Structure (SMILES): COc1cc(Cl)c(C(=O)N[C@@H](CN[C@H]2CC[C@@H](N)CC2)Cc2ccc(C#N)cc2)cc1-c1ccc(CN[C@H](C)c2ccc(C)cc2)o1 [BAY-850]
- inhibition at 10 µM (SETD2): 7%
- inhibition at 10 µM (GLP): 2%

Structure (SMILES): Cc1c(NC(=O)c2cc(C(N)=O)nc3cc(F)ccc23)c(C(F)(F)F)nn1Cc1ccc(C#N)cc1 [BAY-876]
- inhibition at 10 µM (SETD2): -4%
- inhibition at 10 µM (GLP): 0%

Structure (SMILES): Cc1noc(C)c1-c1ccc2c(c1)nc(CCc1ccccc1)n2CCN1CCOCC1 [CBP30-298]
- Kd (TRIM33(PHD,BRD); BROMOscan Gene Symbol TRIM33(PHD,Bromo.)): > 50000 nM
- Kd (TRIM33(PHD,BRD); [1]): > 30000 nM
- Kd (BRD4(2); BROMOscan Gene Symbol BRD4(2)): 2.7 µM
- Kd (PBRM1(2); BROMOscan Gene Symbol PBRM1(2)): 42000 nM
- Kd (TAF1L(2); BROMOscan Gene Symbol TAF1L(2)): 17 µM
- Kd (ATAD2A; BROMOscan Gene Symbol ATAD2A): > 150000 nM
- Kd (ATAD2A; [1]): > 30000 nM

Structure (SMILES): CCC(=O)N1CCOc2c(cc(-c3ccc(OC)c(OC)c3)cc2OCC2CCCN(C)C2)C1 (stereo not drawn) [I-CBP112]
- Kd (TRIM33(PHD,BRD); [2]): > 30000 nM
- Kd (TRIM33(PHD,BRD); KD, TRIM33(PHD,Bromo.)): > 100000 nM
- Kd (BRD4(2)): 16 µM
- Kd (PBRM1(2); [2]): > 30000 nM
- Kd (PBRM1(2); KD, PBRM1(2)): > 100000 nM
- Kd (GCN5L2; [2]): > 30000 nM
- Kd (GCN5L2; KD, GCN5L2): > 100000 nM
- Kd (TAF1L(2)): 52 µM
- Kd (ATAD2A; [2]): > 30000 nM
- Kd (ATAD2A; [3]): > 100000 nM
- Kd (SMARCA2; [2]): > 30000 nM
- Kd (SMARCA2; KD, SMARCA2): > 100000 nM
- Kd (TRIM24; TRIM24(Bromo.)): 12 µM

Next, values leading:

- Kd (TRIM33(PHD,BRD); [2]): > 30000 nM
- Kd (TRIM33(PHD,BRD); KD, BROMOscan Gene Symbol TRIM33(PHD,Bromo.)): > 100000 nM
- Kd (BRD4(2)): 29 µM
- Kd (PBRM1(2); [2]): > 30000 nM
- Kd (PBRM1(2); KD, BROMOscan Gene Symbol PBRM1(2)): > 100000 nM
- Kd (GCN5L2; [2]): > 30000 nM
- Kd (GCN5L2; KD, BROMOscan Gene Symbol GCN5L2): > 100000 nM
- Kd (TAF1L(2)): 5.1 µM
- Kd (ATAD2A; [2]): > 30000 nM
- Kd (ATAD2A; [3]): > 100000 nM
- Kd (SMARCA2; [2]): > 30000 nM
- Kd (SMARCA2; KD, BROMOscan Gene Symbol SMARCA2): > 100000 nM
- Kd (TRIM24; BROMOscan Gene Symbol TRIM24(Bromo.)): 24 µM
Structure (SMILES): CCCOc1ccn2c(C(C)=O)cc(-c3ccccc3S(C)(=O)=O)c2c1 [GSK2801]

- inhibition at 10 µM (SETD2): -1%
- inhibition at 10 µM (GLP): 2%
Structure (SMILES): CN1C[C@H](Nc2cnn(C)c(=O)c2Br)C[C@H](c2ccccc2)C1 [GSK4027]

- MTases Inhibition (%) (SETD2; 10µM): 1%
- MTases Inhibition (%) (GLP; 10µM): 3%
Structure (SMILES): COc1ccccc1C(=O)Nc1cc2c(cc1N1CCNC[C@H]1C)n(C)c(=O)n2C [GSK6853]

- inhibition at 10 µM (SETD2): 7%
- inhibition at 10 µM (GLP): 2%
Structure (SMILES): CO[C@H]1CNC[C@@H](OCC2CCC(F)(F)CC2)[C@@H]1Nc1ncc(-c2cncc(C)c2)c2cc(C)c(=O)[nH]c12 [GSK8814]
